Patent US20210113529A1, “MEDICINE FOR PREVENTING OR TREATING OPHTHALMIC DISEASE ASSOCIATED WITH ENHANCED INTRAOCULAR NEOVASCULARIZATION AND/OR INTRAOCULAR VASCULAR PERMEABILITY” (KYOTO UNIVERSITY, priority 2018, published 2021)

Legend:
[1] = tested on: lymphocytes in the peripheral blood; assay: Lymphocyte count in peripheral blood, ddy strain mice; type: in vivo; settings: 0.03 mg/kg orally twice at an interval of 12 hours, 24 hours from second administration
Procedure: Next, 7-week-old mice (Japan SLC, Inc., ddy strain) were orally administered Compound 1 suspended in a vehicle (0.5% MC solution) at a dose of 0.03 mg/kg or 0.3 mg/kg (in terms of free form) twice at an interval of 12 hours in the same manner as in Example 2. A control was administered only the vehicle (vehicle group). Experiments were performed using 6 mice in each group. After 24 hours from the second administration, blood was collected from the abdominal vena cava under isoflurane anesthesia using a heparin-treated syringe, and was mixed with EDTA.2K (1 mg). The lymphocyte count in the collected blood was measured using XT-2000iv (Sysmex Corporation).

[2] = tested on: retinal vein occlusion (RVO) model; assay: RVO model: retinal non perfusion area; type: in vivo, mice
Procedure: Eight-week-old mice (Japan SLC, Inc., ddy strain) were anesthetized by intramuscularly administering 10 mL/kg of a mixed anesthetic solution diluted so as to contain ketamine (120 mg/kg) and xylazine (6 mg/kg). After that, 0.15 mL of rose bengal (20 mg/kg; WAKO) was administered into the tail vein, and a vein three head systems away from the optic nerve head of the right eye of the mice was irradiated with a laser to occlude a retinal vein. Thus, a retinal non perfusion area was generated. For the occlusion, the laser irradiation was performed 10 times to 15 times per vein. For the laser irradiation, an attachment of a fundus photography apparatus Micron 4 (Phoenix Research Laboratories, Inc., Pleasanton, Calif., USA) was used (wavelength: 532 nm, spot size: 50 μm, irradiation time: 5,000 ms, laser output: 50 mW). Three veins were occluded per eye, and it was confirmed with photographs of the fundus that the laser-irradiated veins had been completely occluded. […]
The retinal flat mount specimen was photographed under a fluorescence microscope (BX50, Olympus) using a high-sensitivity cooling CCD camera (DP30BW, Olympus) through imaging software Metamorph (Universal Imaging Corp., Downingtown, Pa., USA) on an XY motor-operated stage (Sigma Koki Co., Ltd., Tokyo, Japan). […] The ratio of the retinal non perfusion area was quantified using analysis software in Metamorph. […]

[3] = tested on: human retinal vascular endothelial cells (HRMECs); assay: Permeability of human retinal vascular endothelial cells (Transwell, FITC-dextran); type: cell-based; settings: HRMECs in Transwell; 0.3 nM, 3 nM or 30 nM; 60 minutes pre-culture, 60 minutes after FITC-dextran (40 kDa)
Procedure: The upper chamber of Transwell (diameter: 6.5 mm, pore size: 0.4 μm: Corning Incorporated) coated with collagen and fibronectin was seeded with human retinal vascular endothelial cells (HRMECs) (Cell Systems) at a cell density of 5×10^4 cells/well, and the cells were cultured in Endothelial Cell Growth Medium MV 2 (PromoCell GmbH) under a 5% CO2 atmosphere at 37° C. for 6 days. Then, to the upper chamber and lower chamber of the Transwell, Compound 1 at a final concentration of 0 nM, 0.3 nM, 3 nM, or 30 nM, which had been prepared using 0.001% dimethyl sulfoxide-containing Endothelial Cell Growth Medium MV 2 as a vehicle, was added, and culture was continued. A well to which only the vehicle was added was used as a control. After 60 minutes of culture, 1 mg/mL of fluorescein isothiocyanate (FITC)-dextran (40 kDa: Sigma-Aldrich) was added to the upper chamber of the Transwell, and 60 minutes later, the fluorescence intensity of the medium in the lower chamber was measured to measure the amount of FITC-dextran permeating the lower chamber.

[4] = target: S1P1 receptor (Homo sapiens, UniProt P21453); settings: GTP[γ35S] binding assay; report PLoS One, 2014, 9(10), e110819; read-out: EC50 for S1P1 receptor agonist activity; cited from earlier work
[5] = target: T1, S1P4 receptor (Homo sapiens, UniProt O95977); settings: GTP[γ35S] binding assay; report PLoS One, 2014; cited from earlier work
T1 sequence (O95977 1-384): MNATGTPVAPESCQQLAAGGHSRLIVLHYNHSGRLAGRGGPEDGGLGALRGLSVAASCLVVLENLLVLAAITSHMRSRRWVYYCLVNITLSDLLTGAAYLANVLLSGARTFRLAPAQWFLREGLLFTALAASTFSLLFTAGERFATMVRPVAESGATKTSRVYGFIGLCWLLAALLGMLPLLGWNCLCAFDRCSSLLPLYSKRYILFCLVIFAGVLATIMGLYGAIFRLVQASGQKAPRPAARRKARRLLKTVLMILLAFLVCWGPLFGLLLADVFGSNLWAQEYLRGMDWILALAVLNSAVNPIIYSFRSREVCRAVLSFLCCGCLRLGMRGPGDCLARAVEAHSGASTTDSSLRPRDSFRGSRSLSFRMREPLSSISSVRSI

S1P1 receptor, sequence (P21453 whole entry): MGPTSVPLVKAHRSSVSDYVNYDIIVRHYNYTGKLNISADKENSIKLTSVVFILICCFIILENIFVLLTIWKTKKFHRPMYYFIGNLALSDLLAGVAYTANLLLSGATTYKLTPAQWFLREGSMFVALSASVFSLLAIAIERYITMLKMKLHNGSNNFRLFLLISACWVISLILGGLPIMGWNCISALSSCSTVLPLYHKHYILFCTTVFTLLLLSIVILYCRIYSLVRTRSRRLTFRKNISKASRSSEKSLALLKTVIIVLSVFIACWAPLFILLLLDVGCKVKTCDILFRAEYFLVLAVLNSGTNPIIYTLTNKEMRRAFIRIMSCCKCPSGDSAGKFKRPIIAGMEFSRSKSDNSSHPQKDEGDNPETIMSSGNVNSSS

## C[C@H](Oc1ccc(-c2nc(-c3ccc4[nH]cnc4c3)no2)cc1C(F)(F)F)C(F)(F)F.Cl [Compound 1, 5-{5-[3-(trifluoromethyl)-4-{[(2S)-1,1,1-trifluoropropan-2-yl]oxy}phenyl]-1,2,4-oxadiazol-3-yl}-1H-benzimidazole monohydrochloride]
[1]
  lymphocytes in the peripheral blood: did not cause a significant decrease in lymphocytes in the peripheral blood
[2]; early administration: 0.3 mg/kg orally 12 hours before and immediately after laser irradiation
  enlargement of the non perfusion area: significantly reduced the enlargement of the non perfusion area
[2]; late administration: 0.3 mg/kg orally twice at an interval of 12 hours on the 7th day after laser irradiation
  enlargement of the non perfusion area: significantly reduced the enlargement of the non perfusion area
[3]
  amount of FITC-dextran permeating the lower chamber (fluorescence intensity): significantly decreased the amount of FITC-dextran permeating the lower chamber
[4]
  EC50: 7.4 nM
[5]
  EC50 for S1P4 receptor agonist activity as compared to that for the S1P1 receptor: ≥ 100 fold
